Experimental data taken from publication PMC3731216, “Origin and Functional Diversification of an Amphibian Defense Peptide Arsenal” (PLoS Genetics, 2013).
≈ marks a conversion by molar mass, not a printed value. Where a SMILES comes first, the peptide text is derived from it.

Columns and labels:
[1] = system: Escherichia coli (ATCC 25922); assay: MIC assay in liquid medium (twofold dilutions) against E. coli; assay type: cell-based; conditions: lowest concentration in twofold dilutions with no growth; 5×10^5 CFU/ml, Müller-Hinton broth, 37°C, 18 hours, read by eye; duplicate or triplicate, min–max if variable
Method: (§1) Seventeen predicted and recovered peptides were de novo synthesized using solid-phase technology by CASLO Laboratory ApS (Lyngby, Denmark) and delivered as HPLC-purified (>95%) trifluoracetate (TFA) salts. The peptide salts were stored as 5.12 mM stock solutions in 0.01% (V/V) acetic acid/0.2% (m/V) BSA. Peptides were tested against Escherichia coli (ATCC 25922) and Pseudomonas aeruginosa (ATCC 15692), Staphylococcus aureus (ATCC 25923), Micrococcus luteus, Saccharomyces cerevisiae, a protozoan parasite (Trypanosoma brucei brucei), mouse (Mus musculus) red blood cells and mouse spleen tissue cultures (containing 50–60% B-cells, ∼25–30% T-cells, and 5% myeloid cells). All assays were performed in duplicate or triplicate.
(§2) Activity against the bacteria and fungus was measured by assessing the lowest peptide concentration in a series of twofold dilutions at which no growth was detected (known as the minimum inhibitory concentration, MIC). Bacterial and yeast cultures (5×10^5 colony forming units/ml) were prepared in Müller-Hinton (MH) broth and Luria-Bertani (LB) broth respectively and transferred to serial dilutions of peptides ranging from 512 or 256 µM down to 1 or 0.5 µM in 96-well polypropylene plates. After incubation at 37°C (bacteria) or 30°C (S. cerevisiae) for 18 hours, growth of the cultures was checked by eye. In addition to MIC, we determined minimum microbicidal concentrations (MMC) by inoculating samples of the MIC assays on agar plates lacking peptides and checking for overnight growth. In all cases, MIC and MMC were identical.

[2] = system: Pseudomonas aeruginosa (ATCC 15692); assay: MIC assay in liquid medium (twofold dilutions) against P. aeruginosa; assay type: cell-based; conditions: lowest concentration in twofold dilutions with no growth; 5×10^5 CFU/ml, Müller-Hinton broth, 37°C, 18 hours, read by eye; duplicate or triplicate, min–max if variable
Method: as §1, §2

[3] = system: Staphylococcus aureus (ATCC 25923); assay: MIC assay in liquid medium (twofold dilutions) against S. aureus; assay type: cell-based; conditions: lowest concentration in twofold dilutions with no growth; 5×10^5 CFU/ml, Müller-Hinton broth, 37°C, 18 hours, read by eye; duplicate or triplicate, min–max if variable
Method: as §1, §2

Micrococcus luteus = assay: MIC assay in liquid medium (twofold dilutions) against M. luteus; assay type: cell-based; conditions: lowest concentration in twofold dilutions with no growth; 5×10^5 CFU/ml, Müller-Hinton broth, 37°C, 18 hours, read by eye; duplicate or triplicate, min–max if variable
Method: as §1, §2

Saccharomyces cerevisiae = assay: MIC assay in liquid medium (twofold dilutions) against S. cerevisiae; assay type: cell-based; conditions: lowest concentration in twofold dilutions with no growth; 5×10^5 CFU/ml, Luria-Bertani broth, 30°C, 18 hours, read by eye; duplicate or triplicate, min–max if variable
Method: as §1, §2

mouse red blood cells = assay: Hemolysis of mouse red blood cells (HC50); assay type: cell-based; conditions: lowest concentration causing at least 50% hemolysis; mouse blood diluted 1/100 in RPMI, 37°C, 30 minutes, OD 550 nm; 100% = 1% Tween-20
Method: as §1
Activity against mouse red blood cells was examined by assessing the lowest peptide concentration in a series of twofold dilutions causing at least 50% hemolysis (HC50). Briefly, heparinized blood was obtained by cardiac puncture of mice euthanized via CO2. The blood was diluted 1/100 in RPMI and added to polypropylene 96-well plates containing the serial peptide dilutions to obtain total volumes of 100 µl. The plates were incubated at 37°C in a humidified atmosphere for 30 minutes and centrifuged at 1400 rpm for 2 minutes to pellet intact red blood cells allowing visual observation of hemolysis. Supernatants were subsequently transferred to 96-well flat-bottom plates to allow spectrophotometry using an ELISA reader (OD measured at 550 nm). The percentage of hemolyis for each peptide concentration was calculated as 100×(ODobs−OD0%)/(OD100%−OD0%), where ODobs is the OD measured for the peptide concentration, OD0% is the average OD in the absence of peptides (0% hemolysis), and OD100% is the average OD in the presence of 1% Tween-20 (100% hemolysis).

[4] = system: T-lymphocytes (naive C57Black/6 splenocytes); assay: Inhibition of Concanavalin A-induced T-cell proliferation in spleen cell cultures; assay type: cell-based, Mus musculus; conditions: lowest concentration causing at least 50% inhibition of Concanavalin A-induced T-cell proliferation; 2×10^5 splenocytes, 24 h + 18 h [3H]thymidine, 37°C; min–max if variable
Method: as §1
Activity against T-lymphocytes was assessed as the lowest peptide concentration in a series of twofold dilutions causing at least 50% inhibition of Concanavalin A-induced T-cell proliferation (IC50). Solutions containin 2×10^5 naive C57Black/6 splenocytes in the presence of 2.5 µg Concanavalin A were added to polypropylene 96-well plates containing the serial peptide dilutions to obtain total volumes of 100 µl. After incubation for 24 hours at 37°C in a humidified atmosphere, the cells were pulsed with [^3H]thymidine and incubated for an additional 18 hours. The amount of [^3H]thymidine incorporation was assessed by a β-counter as a measure of cell proliferation and the percentage of proliferation inhibition for each peptide concentration was calculated as 100×(1−(Tobs/T100%)), where Tobs is the [^3H]thymidine level measured for the peptide concentration, and T100% is the [^3H]thymidine level measured for Concanavalin-A-induced cell proliferation in the absence of peptide (representing 100% proliferation).

SMILES | MIC E. coli [1] | MIC P. aeruginosa [2] | MIC S. aureus [3] | MIC M. luteus (Micrococcus luteus) | MIC S. cerevisiae (Saccharomyces cerevisiae) | HC50 Erythrocytes (mouse red blood cells) | IC50 [4]
CC[C@H](C)[C@H](NC(=O)[C@H](CC(C)C)NC(=O)[C@H](CCCCN)NC(=O)[C@H](CO)NC(=O)[C@H](C)NC(=O)CNC(=O)[C@H](CCCCN)NC(=O)[C@H](CC(C)C)NC(=O)[C@H](C)NC(=O)[C@H](CCSC)NC(=O)[C@H](CCCCN)NC(=O)[C@H](C)NC(=O)[C@H](Cc1ccccc1)NC(=O)[C@@H](NC(=O)CNC(=O)[C@H](Cc1ccccc1)NC(=O)[C@H](CC(C)C)NC(=O)[C@@H](N)CO)[C@@H](C)O)C(=O)N1CCC[C@H]1C(=O)N[C@@H](Cc1c[nH]cn1)C(=O)N[C@@H](CC(C)C)C(=O)N[C@@H](CC(C)C)C(=O)N1CCC[C@H]1C(=O)N[C@@H](CO)C(=O)N[C@@H](CCCNC(=N)N)C(=O)N[C@@H](CCC(N)=O)C(=O)N[C@@H](CCC(N)=O)C(=O)O [CPF-St4] (H-SLFGTFAKMALKGASKLIPHLLPSRQQ-OH) | 2 to 4 µM | 4 to 8 µM | 1 µM | 0,5 µM | 16 µM | 64 µM | 2 µM
CC[C@H](C)[C@H](NC(=O)[C@H](CC(C)C)NC(=O)[C@H](CCCCN)NC(=O)[C@H](CO)NC(=O)[C@H](C)NC(=O)CNC(=O)[C@H](CCCCN)NC(=O)[C@H](CC(C)C)NC(=O)[C@H](C)NC(=O)[C@H](C)NC(=O)[C@H](CCCCN)NC(=O)[C@H](C)NC(=O)[C@H](CC(C)C)NC(=O)[C@H](CC(C)C)NC(=O)CNC(=O)[C@H](Cc1ccccc1)NC(=O)[C@@H](NC(=O)CN)C(C)C)C(=O)N1CCC[C@H]1C(=O)N[C@@H](Cc1c[nH]cn1)C(=O)N[C@@H](CC(C)C)C(=O)N[C@@H](CC(C)C)C(=O)N1CCC[C@H]1C(=O)N[C@@H](CO)C(=O)N[C@@H](CCCNC(=N)N)C(=O)N[C@@H](CCC(N)=O)C(=O)N[C@@H](CCC(N)=O)C(=O)O [CPF-St5] (H-GVFGLLAKAALKGASKLIPHLLPSRQQ-OH) | 1 µM (≈ 2.81 µg/mL) | 4 to 8 µM | 1 µM (≈ 2.81 µg/mL) | 0,5 µM | 16 µM (≈ 45 µg/mL) | 64 µM | 8 µM
CC[C@H](C)[C@H](NC(=O)[C@@H](N)Cc1ccccc1)C(=O)NCC(=O)N[C@@H](C)C(=O)N[C@@H](CC(C)C)C(=O)N[C@@H](CC(C)C)C(=O)N[C@@H](CCCNC(=N)N)C(=O)N1CCC[C@H]1C(=O)N[C@@H](C)C(=O)N[C@@H](CC(C)C)C(=O)N[C@@H](CCCCN)C(=O)N[C@@H](CC(C)C)C(=O)N[C@@H](CC(C)C)C(=O)N[C@@H](C)C(=O)NCC(=O)N[C@@H](CCCCN)C(=O)O [PFQa-St2] (H-FIGALLRPALKLLAGK-OH) | 32 µM (≈ 53.8 µg/mL) | 256 µM (≈ 430 µg/mL) | 16 µM (≈ 26.9 µg/mL) | 4 µM (≈ 6.72 µg/mL) | 128 µM (≈ 215 µg/mL) | 256 µM | 128 µM
CC[C@H](C)[C@H](NC(=O)[C@H](C)NC(=O)[C@H](CCC(=O)O)NC(=O)[C@H](CC(C)C)NC(=O)CNC(=O)CNC(=O)[C@H](CCCCN)NC(=O)[C@H](C)NC(=O)[C@H](Cc1ccccc1)NC(=O)[C@H](CCCCN)NC(=O)[C@H](CCCCN)NC(=O)[C@H](CC(C)C)NC(=O)CNC(=O)CNC(=O)[C@H](CC(C)C)NC(=O)[C@@H](NC(=O)[C@@H](NC(=O)[C@H](CO)NC(=O)[C@H](Cc1c[nH]c2ccccc12)NC(=O)[C@@H](NC(=O)CN)C(C)C)[C@@H](C)O)C(C)C)C(=O)N[C@H](C(=O)N[C@@H](CC(N)=O)C(=O)N1CCC[C@H]1C(=O)N[C@@H](CCCCN)C(=O)O)C(C)C [XPF-St1] (H-GVWSTVLGGLKKFAKGGLEAIVNPK-OH) | 4 µM (≈ 10.3 µg/mL) | 32 µM (≈ 82.2 µg/mL) | 32 to 64 µM | 0,5 µM | 32 µM (≈ 82.2 µg/mL) | 128 µM | 16 µM
CC[C@H](C)[C@H](NC(=O)[C@H](CO)NC(=O)[C@H](CO)NC(=O)[C@H](C)NC(=O)[C@H](Cc1c[nH]c2ccccc12)NC(=O)CN)C(=O)NCC(=O)N[C@@H](CO)C(=O)N[C@H](C(=O)N[C@@H](CC(C)C)C(=O)NCC(=O)N[C@@H](CCCCN)C(=O)N[C@@H](Cc1ccccc1)C(=O)N[C@@H](C)C(=O)N[C@@H](CCCCN)C(=O)NCC(=O)NCC(=O)N[C@@H](C)C(=O)N[C@@H](CCC(N)=O)C(=O)N[C@@H](C)C(=O)N[C@@H](Cc1ccccc1)C(=O)N[C@@H](CC(C)C)C(=O)N[C@@H](CCC(N)=O)C(=O)N1CCC[C@H]1C(=O)N[C@@H](CCCCN)C(=O)O)[C@@H](C)CC [XPF-St4] (H-GWASSIGSILGKFAKGGAQAFLQPK-OH) | 32 µM (≈ 80.6 µg/mL) | 128 µM (≈ 323 µg/mL) | >256 µM | 0,5 µM | 64 µM (≈ 161 µg/mL) | 256 µM | 64 µM
CC[C@H](C)[C@H](NC(=O)[C@@H]1CCCN1C(=O)[C@H](CCC(N)=O)NC(=O)[C@@H](NC(=O)[C@H](CC(C)C)NC(=O)[C@H](CCCCN)NC(=O)[C@@H]1CCCN1C(=O)CNC(=O)[C@H](CC(C)C)NC(=O)[C@H](CCC(N)=O)NC(=O)[C@H](CCSC)NC(=O)[C@H](C)NC(=O)[C@H](CCCCN)NC(=O)[C@H](CCCNC(=N)N)NC(=O)[C@H](CC(C)C)NC(=O)[C@@H](NC(=O)[C@H](CCCCN)NC(=O)CNC(=O)[C@H](Cc1ccccc1)NC(=O)[C@@H](NC(=O)[C@@H]1CCCN1C(=O)[C@H](CC(C)C)NC(=O)[C@H](Cc1c[nH]c2ccccc12)NC(=O)CN)[C@@H](C)O)[C@@H](C)CC)[C@@H](C)CC)C(=O)O [XPF-St5] (H-GWLPTFGKILRKAMQLGPKLIQPI-OH) | 1 to 2 µM | 8 to 16 µM | 16 µM (≈ 43.3 µg/mL) | 1 µM (≈ 2.71 µg/mL) | 32 µM (≈ 86.6 µg/mL) | 128 µM | 8 to 16 µM
